Measured values taken from patent publication US9987332B2, “Pharmaceutical composition for use in the treatment of a neurodegenerative disease” (SANOFI-AVENTIS DEUTSCHLAND GMBH, priority 2011, dated 2018).

Legend:
[1] = Uptake by the brain: levels in mouse brain tissue after i.p. injection; assay type: in vivo; details: 2.5 nmol/kg bw ip.
Description: Values are the mean±S.E.M. *p<0.05, **p<0.01.
Values are the mean±S.E.M. *p<0.05.
3 doses (2.5 nmol/kg bw, 25 nmol/kg bw and 250 nmol/kg bw, ip.) were tested, and the levels found in mouse brain tissue 30 min and 3 h post injection were examined.

[2] = Kastin et al 2001; McClean et al 2011; cited from earlier work

Molecule | Levels in the brain at the lowest dose [1] | Crossing of the blood brain barrier (BBB) [2]
CCCCCCCCCCCCCCCC(=O)N[C@@H](CCC(=O)NCCCC[C@H](NC(=O)[C@H](C)NC(=O)[C@H](C)NC(=O)[C@H](CCC(N)=O)NC(=O)CNC(=O)[C@H](CCC(=O)O)NC(=O)[C@H](CC(C)C)NC(=O)[C@H](Cc1ccc(O)cc1)NC(=O)[C@H](CO)NC(=O)[C@H](CO)NC(=O)[C@@H](NC(=O)[C@H](CC(=O)O)NC(=O)[C@H](CO)NC(=O)[C@@H](NC(=O)[C@H](Cc1ccccc1)NC(=O)[C@@H](NC(=O)CNC(=O)[C@H](CCC(=O)O)NC(=O)[C@H](C)NC(=O)[C@@H](N)Cc1cnc[nH]1)[C@@H](C)O)[C@@H](C)O)C(C)C)C(=O)N[C@@H](CCC(=O)O)C(=O)N[C@@H](Cc1ccccc1)C(=O)N[C@H](C(=O)N[C@@H](C)C(=O)N[C@@H](Cc1c[nH]c2ccccc12)C(=O)N[C@@H](CC(C)C)C(=O)N[C@H](C(=O)N[C@@H](CCCNC(=N)N)C(=O)NCC(=O)N[C@@H](CCCNC(=N)N)C(=O)NCC(=O)O)C(C)C)[C@@H](C)CC)C(=O)O [liraglutide, Arg^34,Lys^26(N^ε(γ-glutamyl(N^α-hexadecanoyl)))GLP-1(7-37)] | did not show an increase | have been shown to cross the blood brain barrier
GLP-1: 30-amino acid peptide hormone encoded in the proglucagon gene | – | have been shown to cross the blood brain barrier
